Assay results as given in patent publication US9951039B2, “Pyrimidines for treatment of bacterial infections” (The Hong Kong Polytechnic University, priority 2016, dated 2018).

Experiments:
MRSA ATCC 43300 = test: Frequency of resistance (FOR) determination; format: cell-based, S. aureus; conditions: 8 folds of MIC, after 48 hours' incubation
Experimental: Procedure: MRSA ATCC 43300 cells were grown to late-exponential phase (1×10^9 CFU/mL) and spread on agars plates containing 1% DMSO or compound 14av_amine16 at 8 folds of MIC level. The plates were incubated for 48 hours to allow resistant mutants to grow. The spontaneous FOR was calculated as the number of resistance colonies divided by the number of CFUs originally plated. The assay was performed in triplicates.

S. aureus FtsZ [1] = target: T1, S. aureus FtsZ (Staphylococcus aureus, UniProt P0A031); test: Saturation Transfer Difference (STD) NMR study; format: binding; conditions: 298K, line broadening and STD effect
T1 construct: 6-histidine tag; made in house; host or cells: E. coli BL21(DE3)
T1 sequence (P0A031 1-390): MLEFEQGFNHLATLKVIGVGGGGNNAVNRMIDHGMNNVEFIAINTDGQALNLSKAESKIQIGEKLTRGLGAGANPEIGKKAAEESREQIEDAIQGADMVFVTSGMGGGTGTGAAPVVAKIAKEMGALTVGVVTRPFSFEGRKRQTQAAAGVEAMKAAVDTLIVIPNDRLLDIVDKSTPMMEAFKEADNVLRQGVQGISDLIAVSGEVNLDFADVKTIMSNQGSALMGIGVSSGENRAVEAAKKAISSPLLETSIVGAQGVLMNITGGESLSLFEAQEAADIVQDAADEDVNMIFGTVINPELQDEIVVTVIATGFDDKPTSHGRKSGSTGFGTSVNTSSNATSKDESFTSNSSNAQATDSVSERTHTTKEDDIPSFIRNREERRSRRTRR
Experimental: (§1) Procedure for expression and purification of S. aureus FtsZ protein: S. aureus FtsZ protein was prepared as previous reported.^16a In brief, E. coli BL21(DE3) cells, transformed with a pRSET-A-S vector carrying S. aureus FtsZ with a 6-histidine tag attached, were streaked on a nutrient agar plate containing 50 μg/mL ampicillin. After overnight incubation at 37° C., a single colony was inoculated into 5 mL of Luria-Bertani (LB) medium in the presence of 50 μg/mL ampicillin, which was then incubated at 37° C., with shaking at 250 rpm for 16 h. […]
Procedure STD NMR study: STD NMR experiments were performed on a Bruker Avance III 600 NMR spectrometer equipped with a QCI cryoprobe at 298K. Spectra were recorded with a carrier set at 0.5 ppm for on-resonance irradiation and 30 ppm for off-resonance irradiation. Control spectra were recorded under identical conditions without compound to test for artifacts. Selective protein saturation was accomplished using a train of 40 Gauss-shaped pulses (50 ms with 1 ms delay between pulses) for a total saturation time of 2 s at an experimentally determined optimal power (7.7625 W on the probe); a T1p spinlock filter (20-50 ms) was incorporated to suppress protein resonances. STD spectra were recorded using a minimum of 128 scans and 32 k points covering a spectral width of 6600 Hz. […]

S. aureus FtsZ [2] = target: T1, S. aureus FtsZ; test: GTPase hydrolysis assay (CytoPhos phosphate assay); format: biochemical
Experimental: as §1, with “h. The overnight culture was transferred into a fresh 2×TY medium in a dilution ratio of 1:100 and 50 μg/mL ampicillin was then added, followed by incubation at 37° C. with shaking at 250 rpm. When OD600 reached 0.8, protein expression was induced with 0.4 mM isopropyl-β-D-thiogalactopyranoside (IPTG) for 4 h. Cells were harvested by centrifugation at 9000 rpm for 20 min at 4° C.” for “h.”
Procedure: The inhibitory effect of compound 14av_amine16 on GTPase hydrolysis activity was investigated according to the protocol described previously.^18 The GTPase activity of S. aureus FtsZ was estimated in a 96-well microplate using a CytoPhos phosphate assay Biochem Kit based on the manufacturer's instructions. […] The precipitated inorganic phosphate was quantified by measuring the absorbance at 650 nm in a microplate reader. […]

`CCC(CC)c1cc(CCN2CCCN(Cc3ccc(C(F)(F)F)cc3)CC2)nc(-c2ccncc2)n1` [Compound 14av_amine16, 1-(2-(6-(pentan-3-yl)-2-(pyridin-4-yl)pyrimidin-4-yl)ethyl)-4-(4-(trifluoromethyl)benzyl)-1,4-diazepane] was tested, and the “colonies on plates treated with compound” value (MRSA ATCC 43300) was “no colony was observed”, the “binding to FtsZ protein by STD NMR” value (S. aureus FtsZ [1]) was “indeed bind to FtsZ protein” and the inhibition at 50 µM (S. aureus FtsZ [2]; compound at 50 μM) was about 20%. The inhibition at 75 µM (S. aureus FtsZ [2]; compound at 75 μM) was about 25%.
